Reference: patent US10149887B2, “Peptides and peptidomimetics in combination with t cell activating and/or checkpoint inhibiting agents for cancer treatment” (CanBas Co., Ltd., priority 2015, dated 2018)
Where two headings read alike, the source gives them in different places. Square brackets hold non-standard residues; d marks the D form. Peptide text beside a SMILES is read from it. Phe(F5) = N[C@@H](Cc1c(F)c(F)c(F)c(F)c1F)C(=O)O; dPhe(F5) = N[C@H](Cc1c(F)c(F)c(F)c(F)c1F)C(=O)O; Cha = N[C@@H](CC1CCCCC1)C(=O)O; dCha = N[C@H](CC1CCCCC1)C(=O)O; Aun = NCCCCCCCCCCC(=O)O

What was measured:
Jurkat cells [1] = assay: M phase checkpoint abrogation / non specific toxicity, colchicine treated Jurkat cells; assay type: cell-based; settings: dose with 5 μg/ml colchicine that produced Jurkat cell cycle disturbance, 24 hours
Description: Flow cytometry analysis of M phase checkpoint abrogation by the compounds was performed using human T cell leukemia Jurkat cell line treated with colchicine (5 μg/ml or 0.5 μg/ml) and various doses of peptide/peptidomimetics for 24 hr (FIG. 12). The DNA of the cells was stained and analyzed by flow cytometry as described above.
(§1) The “Appearance of side effect when used alone” indicates the peptide/peptidomimetic dose that produced Jurkat cell cycle disturbance, i.e., the appearance of significant amounts of SubG1 cells (dead cells) or cells in which the DNA content of each varies more than usual. […] The “G2 abrogating dose” indicates the peptide/peptidomimetic dose with 40 μg/ml bleomycine that produced detectable G2 checkpoint abrogation activity following treatment for 24 hours. The “Appearance of side effect when used with colchicine” indicates the peptide/peptidomimetic dose with 5 μg/ml colchicine that produced Jurkat cell cycle disturbance following treatment for 24 hours.
A comparison between G2 checkpoint abrogating activity and non specific toxicity (M checkpoint abrogation) by CB501 was performed. In brief, Jurkat cells were treated with 40 μg/ml bleomycin or 0.5 μg/ml colchicine for G2 checkpoint abrogating activity and non specific toxicity, respectively. The DNA amount in each of the treated cells was analyzed by flow cytometry, as previously described.

Jurkat cells [2] = assay: Side effect of peptide used alone: Jurkat cell cycle disturbance (flow cytometry); assay type: cell-based
Description: Cell-cycle analysis The cell cycle status of the cells treated with bleomycin or adriamcin were analyzed by flow cytometry as described by Kawabe (1997) Nature 385:454-458. In brief, two million cells were re-suspended and incubated in 200 μl Krishan's solution (0.1% Sodium citrate, 50 μg/ml PI, 20 μg/ml RNase A and 0.5% NP-40) for 1 hr at 4° C. and analyzed by a flow cytometry, FACScan™ (Beckton Dickinson, Mountain View, Calif.) with the program CELLQuest™ (Beckton Dickinson).
as §1

[3] = dose that produced Jurkat cell cycle disturbance, peptide alone

Compound | Appearance of side effect when used with Colchicine (Jurkat cells [1]) | Appearance of side effect when used alone (Jurkat cells [2]; [3]) | Appearance of side effect when used alone (Jurkat cells [2])
N=C(N)NCCC[C@H](NC(=O)CNC(=O)[C@@H](N)Cc1ccc(O)cc1)C(=O)N[C@@H](CCCCN)C(=O)N[C@@H](CCCCN)C(=O)N[C@@H](CCCNC(=N)N)C(=O)N[C@@H](CCCNC(=N)N)C(=O)N[C@@H](CCC(N)=O)C(=O)N[C@@H](CCCNC(=N)N)C(=O)N[C@@H](CCCNC(=N)N)C(=O)N[C@@H](CCCNC(=N)N)C(=O)N[C@@H](CC1CCCCC1)C(=O)N[C@@H](Cc1c(F)c(F)c(F)c(F)c1F)C(=O)N[C@@H](CCCNC(=N)N)C(=O)N[C@@H](CO)C(=O)N1CCC[C@H]1C(=O)N[C@@H](CO)C(=O)N[C@@H](Cc1ccc(O)cc1)C(=O)O [CBP420, (1-Tyr)(1-Gly)(1-Arg)(1-Lys)(1-Lys)(1-Arg)(1-Arg)(1-Gln)(1-Arg)(1-Arg)(1-Arg)(1-Cha)(1-Phe-2,3,4,5,6-F)(1-Arg)(1-Ser)(1-Pro)(1-Ser)(1-Tyr)] | ≥50 µM | >50 µM | –
N=C(N)NCCC[C@H](NC(=O)[C@H](CCCNC(=N)N)NC(=O)[C@@H](N)CCCNC(=N)N)C(=O)N[C@@H](CC1CCCCC1)C(=O)N[C@@H](Cc1c(F)c(F)c(F)c(F)c1F)C(=O)N[C@@H](CCCNC(=N)N)C(=O)N[C@@H](CO)C(=O)N1CCC[C@H]1C(=O)N[C@@H](CO)C(=O)N[C@@H](Cc1ccc(O)cc1)C(=O)N[C@@H](Cc1ccc(O)cc1)C(=O)O [CBP430, (1-Arg)(1-Arg)(1-Arg)(1-Cha)(1-Phe-2,3,4,5,6-F)(1-Arg)(1-Ser)(1-Pro)(1-Ser)(1-Tyr)(1-Tyr)] (H-RRR[Cha][Phe(F5)]RSPSYY-OH; N-terminus and C-terminus assumed) | – | – | >50 µM
N=C(N)NCCC[C@H](NC(=O)[C@H](CCCNC(=N)N)NC(=O)[C@H](CCCNC(=N)N)NC(=O)[C@H](CCC(N)=O)NC(=O)[C@H](CCCNC(=N)N)NC(=O)[C@@H](N)CCCNC(=N)N)C(=O)N[C@@H](CC1CCCCC1)C(=O)N[C@@H](Cc1c(F)c(F)c(F)c(F)c1F)C(=O)N[C@@H](CCCNC(=N)N)C(=O)N[C@@H](CO)C(=O)N1CCC[C@H]1C(=O)N[C@@H](CO)C(=O)N[C@@H](Cc1ccc(O)cc1)C(=O)N[C@@H](Cc1ccc(O)cc1)C(=O)O [CBP431, (1-Arg)(1-Arg)(1-Gln)(1-Arg)(1-Arg)(1-Arg)(1-Cha)(1-Phe-2,3,4,5,6-F)(1-Arg)(1-Ser)(1-Pro)(1-Ser)(1-Tyr)(1-Tyr)] (H-RRQRRR[Cha][Phe(F5)]RSPSYY-OH; N-terminus and C-terminus assumed) | – | – | >50 µM
N=C(N)NCCC[C@H](NC(=O)CNC(=O)[C@@H](N)Cc1ccc(O)cc1)C(=O)N[C@@H](CCCCN)C(=O)N[C@@H](CCCCN)C(=O)N[C@@H](CCCNC(=N)N)C(=O)N[C@@H](CCCNC(=N)N)C(=O)N[C@@H](CCC(N)=O)C(=O)N[C@@H](CCCNC(=N)N)C(=O)N[C@@H](CCCNC(=N)N)C(=O)N[C@@H](CCCNC(=N)N)C(=O)N[C@@H](CC1CCCCC1)C(=O)N[C@@H](Cc1c(F)c(F)c(F)c(F)c1F)C(=O)NCCCCCCCCCCC(=O)N[C@@H](Cc1ccc(O)cc1)C(=O)N[C@@H](Cc1ccc(O)cc1)C(=O)O [CBP440, (1-Tyr)(1-Gly)(1-Arg)(1-Lys)(1-Lys)(1-Arg)(1-Arg)(1-Gln)(1-Arg)(1-Arg)(1-Arg)(1-Cha)(1-Phe-2,3,4,5,6-F)(1-aminoundecanoic acid)(1-Tyr)(1-Tyr)] | >3.125 µM | >12.5 µM | –
N=C(N)NCCC[C@@H](NC(=O)[C@@H](CCCCN)NC(=O)[C@@H](CCCCN)NC(=O)[C@@H](CCCNC(=N)N)NC(=O)[C@@H](CCCNC(=N)N)NC(=O)[C@@H](CCC(N)=O)NC(=O)[C@@H](CCCNC(=N)N)NC(=O)[C@@H](CCCNC(=N)N)NC(=O)[C@@H](CCCNC(=N)N)NC(=O)[C@@H](CC1CCCCC1)NC(=O)[C@@H](Cc1c(F)c(F)c(F)c(F)c1F)NC(=O)CCCCCCCCCCNC(=O)[C@H](Cc1ccc(O)cc1)NC(=O)[C@@H](N)Cc1ccc(O)cc1)C(=O)NCC(=O)N[C@H](Cc1ccc(O)cc1)C(=O)O [CBP460, (1-Tyr)(1-Tyr)(1-aminoundecanoic acid)(d-Phe-2,3,4,5,6-F)(d-Cha)(d-Arg)(d-Arg)(d-Arg)(d-Gln)(d-Arg)(d-Arg)(d-Lys)(d-Lys)(d-Arg)(1-Gly)(d-Tyr)] (H-YY[Aun][dPhe(F5)][dCha][dR][dR][dR][dQ][dR][dR][dK][dK][dR]G[dY]-OH; N-terminus and C-terminus assumed) | >3.125 µM | >3.125 µM | –
N=C(N)NCCC[C@@H](NC(=O)[C@@H](CCCCN)NC(=O)[C@@H](CCCCN)NC(=O)[C@@H](CCCNC(=N)N)NC(=O)[C@@H](CCCNC(=N)N)NC(=O)[C@@H](CCC(N)=O)NC(=O)[C@@H](CCCNC(=N)N)NC(=O)[C@@H](CCCNC(=N)N)NC(=O)[C@@H](CCCNC(=N)N)NC(=O)[C@@H](CC1CCCCC1)NC(=O)[C@@H](Cc1c(F)c(F)c(F)c(F)c1F)NC(=O)CCCCCCCCCCNC(=O)[C@@H](N)Cc1ccc(O)cc1)C(=O)NCC(=O)N[C@H](Cc1ccc(O)cc1)C(=O)O [CBP461, (1-Tyr)(1-aminoundecanoic acid)(d-Phe-2,3,4,5,6-F)(d-Cha)(d-Arg)(d-Arg)(d-Arg)(d-Gln)(d-Arg)(d-Arg)(d-Lys)(d-Lys)(d-Arg)(1-Gly)(d-Tyr)] (H-Y[Aun][dPhe(F5)][dCha][dR][dR][dR][dQ][dR][dR][dK][dK][dR]G[dY]-OH; N-terminus and C-terminus assumed) | >6.25 µM | >6.25 µM | –
N[C@@H](Cc1ccc(O)cc1)C(=O)NCCCCCCCCCCC(=O)N[C@H](Cc1c(F)c(F)c(F)c(F)c1F)C(=O)N[C@H](CC1CCCCC1)C(=O)O [CBP462, (1-Tyr)(1-aminoundecanoic acid)(d-Phe-2,3,4,5,6-F)(d-Cha)] (H-Y[Aun][dPhe(F5)][dCha]-OH; N-terminus and C-terminus assumed) | – | – | >50 µM
NCCCCCCCCCCC(=O)N[C@H](Cc1c(F)c(F)c(F)c(F)c1F)C(=O)N[C@H](CC1CCCCC1)C(=O)O [CBP464, (1-aminoundecanoic acid)(d-Phe-2,3,4,5,6-F)(d-Cha)] (H-[Aun]-[dPhe(F5)]-[dCha]-OH; N-terminus and C-terminus assumed) | – | – | >50 µM
N[C@H](Cc1c(F)c(F)c(F)c(F)c1F)C(=O)N[C@H](CC1CCCCC1)C(=O)O [CBP470, (d-Phe-2,3,4,5,6-F)(d-Cha)] (H-[dPhe(F5)]-[dCha]-OH; N-terminus and C-terminus assumed) | – | – | >50 µM
N=C(N)NCCC[C@@H](NC(=O)[C@@H](CCCNC(=N)N)NC(=O)[C@@H](CCC(N)=O)NC(=O)[C@@H](CCCNC(=N)N)NC(=O)[C@@H](CCCNC(=N)N)NC(=O)[C@@H](CCCNC(=N)N)NC(=O)[C@@H](CC1CCCCC1)NC(=O)[C@@H](Cc1c(F)c(F)c(F)c(F)c1F)NC(=O)[C@@H](CO)NC(=O)[C@@H](Cc1c[nH]c2ccccc12)NC(=O)[C@@H](CO)NC(=O)[C@@H](CO)NC(=O)[C@H](N)Cc1ccc(O)cc1)C(=O)O [CBP481, (d-Tyr)(d-Ser)(d-Ser)(d-Trp)(d-Ser)(d-Phe-2,3,4,5,6-F)(d-Cha)(d-Arg)(d-Arg)(d-Arg)(d-Gln)(d-Arg)(d-Arg)] (H-[dY][dS][dS][dW][dS][dPhe(F5)][dCha][dR][dR][dR][dQ][dR][dR]-OH; N-terminus and C-terminus assumed) | – | – | >50 µM
